Results: ChEMBL document CHEMBL1201862, “PubChem BioAssay data set” (2004)
Activity calls are given as the source filed them.

Experiments:
Cytochrome P450 1A2 = target: T1, Cytochrome P450 1A2 (Homo sapiens, UniProt P05177);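 also: PubChem cytochrome P450 panel assay, CYP1A2 panel member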
T1 sequence (P05177 whole entry): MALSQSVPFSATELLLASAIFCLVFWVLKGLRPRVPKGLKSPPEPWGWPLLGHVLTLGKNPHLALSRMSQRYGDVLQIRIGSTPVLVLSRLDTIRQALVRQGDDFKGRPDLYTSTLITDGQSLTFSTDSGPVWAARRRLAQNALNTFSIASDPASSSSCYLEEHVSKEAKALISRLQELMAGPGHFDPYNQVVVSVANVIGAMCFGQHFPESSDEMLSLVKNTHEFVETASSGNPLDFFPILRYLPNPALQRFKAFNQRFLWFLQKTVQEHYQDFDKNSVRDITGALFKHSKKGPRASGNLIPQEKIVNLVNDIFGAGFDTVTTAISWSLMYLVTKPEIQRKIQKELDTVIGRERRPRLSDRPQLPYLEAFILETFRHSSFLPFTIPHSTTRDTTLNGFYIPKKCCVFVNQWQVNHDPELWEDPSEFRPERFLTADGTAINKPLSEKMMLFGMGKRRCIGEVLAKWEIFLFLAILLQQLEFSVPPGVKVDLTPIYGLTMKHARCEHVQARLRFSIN

[1] = target: T2, Heat shock factor protein 1 (Mus musculus, UniProt P38532); experiment: inhibition of MG132-induced HSE-luciferase signal, confirmation, cell-based, NIH3T3, luminescence, dose retest (AID 2382); format: functional;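 also: NIH3T3 fibroblasts with HSF1-driven luciferase reporter stressed by proteasome inhibitor MG132; luminescence from HSF1-driven luciferase expression after 8 hours of MG132 stress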
T2 sequence (P38532 whole entry): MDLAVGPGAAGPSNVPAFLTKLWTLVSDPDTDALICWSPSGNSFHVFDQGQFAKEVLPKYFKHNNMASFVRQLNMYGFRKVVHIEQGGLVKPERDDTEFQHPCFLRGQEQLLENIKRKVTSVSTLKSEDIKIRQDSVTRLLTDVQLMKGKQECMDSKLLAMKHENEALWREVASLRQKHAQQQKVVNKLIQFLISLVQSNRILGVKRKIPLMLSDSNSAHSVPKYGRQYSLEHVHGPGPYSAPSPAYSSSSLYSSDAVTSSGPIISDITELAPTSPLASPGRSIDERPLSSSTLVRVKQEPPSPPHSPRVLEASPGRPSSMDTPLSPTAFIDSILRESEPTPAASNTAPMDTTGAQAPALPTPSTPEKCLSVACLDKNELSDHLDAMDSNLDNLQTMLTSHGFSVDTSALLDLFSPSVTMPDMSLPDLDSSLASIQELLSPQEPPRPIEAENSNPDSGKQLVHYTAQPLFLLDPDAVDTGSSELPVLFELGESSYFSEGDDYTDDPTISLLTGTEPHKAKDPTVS

Cytochrome P450 2D6 = Cytochrome P450 2D6 (Homo sapiens, UniProt P10635);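 also: CYP2D6 member of a cytochrome P450 panel assay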
cells = format: functional
[2] = target: T3, Rac GTPase-activating protein 1 (Homo sapiens, UniProt Q9H0H5); experiment: MgcRacGAP GTPase-activating activity inhibitors, confirmation, biochemical, ADP Hunter fluorescence, primary and confirmatory (AID 624330); format: functional
T3 sequence (Q9H0H5 whole entry): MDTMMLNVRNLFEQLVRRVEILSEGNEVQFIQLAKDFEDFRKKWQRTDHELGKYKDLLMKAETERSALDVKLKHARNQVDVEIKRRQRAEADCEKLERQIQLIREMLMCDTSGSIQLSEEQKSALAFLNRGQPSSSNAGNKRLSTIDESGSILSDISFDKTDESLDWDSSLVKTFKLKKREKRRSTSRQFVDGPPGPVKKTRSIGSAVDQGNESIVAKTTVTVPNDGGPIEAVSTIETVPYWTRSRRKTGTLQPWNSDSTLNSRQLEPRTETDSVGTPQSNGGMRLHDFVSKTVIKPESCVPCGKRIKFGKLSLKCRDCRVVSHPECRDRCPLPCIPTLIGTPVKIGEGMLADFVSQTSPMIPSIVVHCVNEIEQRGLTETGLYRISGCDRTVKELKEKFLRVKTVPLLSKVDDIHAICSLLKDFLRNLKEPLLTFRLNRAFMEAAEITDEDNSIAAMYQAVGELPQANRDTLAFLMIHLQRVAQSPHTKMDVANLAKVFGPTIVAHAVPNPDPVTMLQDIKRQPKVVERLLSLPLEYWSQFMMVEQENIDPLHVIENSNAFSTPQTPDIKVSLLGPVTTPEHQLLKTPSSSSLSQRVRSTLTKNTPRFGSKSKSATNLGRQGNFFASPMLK

[3] = tested on: Streptococcus sp. 'group A'; experiment: growth inhibition of control SK(-) GAS strain, dose response, counter-screen for streptokinase expression inhibitor project, luminescence, kanamycin, BacTiterGlo, confirmation (AID 1900); format: functional, organism-based
Streptokinase A = target: T4, Streptokinase A (Streptococcus pyogenes serotype M1, UniProt P10520); experiment: S. pyogenes streptokinase expression inhibitors, potency, dose response, plasminogen activation absorbance, OD405 (AID 1914); format: functional, Streptococcus pyogenes M1 GAS;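 also: secreted streptokinase activity via plasminogen activation per viability signal from cell pellet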
T4 sequence (P10520 whole entry): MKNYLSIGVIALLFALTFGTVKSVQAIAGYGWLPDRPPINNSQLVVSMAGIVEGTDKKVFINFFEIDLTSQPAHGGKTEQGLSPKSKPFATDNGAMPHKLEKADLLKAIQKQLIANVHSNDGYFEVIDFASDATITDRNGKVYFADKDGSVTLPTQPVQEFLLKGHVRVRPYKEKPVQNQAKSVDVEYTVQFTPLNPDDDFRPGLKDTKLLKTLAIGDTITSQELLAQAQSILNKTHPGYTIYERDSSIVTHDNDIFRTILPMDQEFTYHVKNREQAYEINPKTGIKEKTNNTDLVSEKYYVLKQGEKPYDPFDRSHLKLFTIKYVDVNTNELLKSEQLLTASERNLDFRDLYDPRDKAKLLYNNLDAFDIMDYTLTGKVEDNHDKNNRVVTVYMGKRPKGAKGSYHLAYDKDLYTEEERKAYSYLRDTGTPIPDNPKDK

Streptococcus = experiment: Group A Streptococcus viability loss, dose response, counter-screen for streptokinase expression inhibitor project, luminescence, BacTiterGlo (AID 1915); format: functional, organism-based;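 also: potency for reduction of bacterial viability or growth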
[4] = target: T5, Replicative DNA helicase DnaB (Mycobacterium tuberculosis, UniProt P9WMR3); experiment: DnaB intein splicing inhibitors, dose response, biochemical, cell-free fluorescence (AID 449749); format: functional
T5 sequence (P9WMR3 whole entry): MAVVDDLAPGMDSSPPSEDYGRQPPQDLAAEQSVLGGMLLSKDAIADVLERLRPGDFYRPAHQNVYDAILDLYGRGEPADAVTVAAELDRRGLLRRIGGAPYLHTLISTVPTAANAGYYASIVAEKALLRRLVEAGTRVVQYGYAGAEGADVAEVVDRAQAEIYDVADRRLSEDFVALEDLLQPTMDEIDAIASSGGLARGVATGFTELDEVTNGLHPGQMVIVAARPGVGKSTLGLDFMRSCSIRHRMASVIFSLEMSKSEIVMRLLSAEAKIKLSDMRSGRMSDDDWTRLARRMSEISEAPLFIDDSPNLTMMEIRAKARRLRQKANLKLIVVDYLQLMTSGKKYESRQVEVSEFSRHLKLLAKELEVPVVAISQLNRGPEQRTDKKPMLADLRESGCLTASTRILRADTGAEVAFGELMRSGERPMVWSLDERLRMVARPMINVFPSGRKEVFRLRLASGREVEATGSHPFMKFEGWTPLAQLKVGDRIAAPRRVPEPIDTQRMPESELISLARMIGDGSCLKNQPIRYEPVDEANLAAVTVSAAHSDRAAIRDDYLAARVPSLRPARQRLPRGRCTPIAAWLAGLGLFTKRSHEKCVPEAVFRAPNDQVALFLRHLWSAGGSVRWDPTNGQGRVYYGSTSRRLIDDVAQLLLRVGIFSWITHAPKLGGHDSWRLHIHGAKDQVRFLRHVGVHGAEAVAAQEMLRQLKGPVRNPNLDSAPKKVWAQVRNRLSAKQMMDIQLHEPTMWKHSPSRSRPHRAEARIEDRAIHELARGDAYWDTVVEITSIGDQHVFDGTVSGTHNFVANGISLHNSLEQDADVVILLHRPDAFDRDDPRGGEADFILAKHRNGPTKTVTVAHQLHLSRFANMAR

Protein RecA = target: T6, Protein RecA (Mycobacterium tuberculosis, UniProt P9WHJ3); experiment: Fluorescence Cell-Free Homogeneous Dose Retest to Identify Inhibitors of RecA-Intein Splicing Activity. [Related pubchem assays (depositor defined):AID2097, AID2223, AID489010, AID492950]; format: functional
T6 sequence (P9WHJ3 whole entry): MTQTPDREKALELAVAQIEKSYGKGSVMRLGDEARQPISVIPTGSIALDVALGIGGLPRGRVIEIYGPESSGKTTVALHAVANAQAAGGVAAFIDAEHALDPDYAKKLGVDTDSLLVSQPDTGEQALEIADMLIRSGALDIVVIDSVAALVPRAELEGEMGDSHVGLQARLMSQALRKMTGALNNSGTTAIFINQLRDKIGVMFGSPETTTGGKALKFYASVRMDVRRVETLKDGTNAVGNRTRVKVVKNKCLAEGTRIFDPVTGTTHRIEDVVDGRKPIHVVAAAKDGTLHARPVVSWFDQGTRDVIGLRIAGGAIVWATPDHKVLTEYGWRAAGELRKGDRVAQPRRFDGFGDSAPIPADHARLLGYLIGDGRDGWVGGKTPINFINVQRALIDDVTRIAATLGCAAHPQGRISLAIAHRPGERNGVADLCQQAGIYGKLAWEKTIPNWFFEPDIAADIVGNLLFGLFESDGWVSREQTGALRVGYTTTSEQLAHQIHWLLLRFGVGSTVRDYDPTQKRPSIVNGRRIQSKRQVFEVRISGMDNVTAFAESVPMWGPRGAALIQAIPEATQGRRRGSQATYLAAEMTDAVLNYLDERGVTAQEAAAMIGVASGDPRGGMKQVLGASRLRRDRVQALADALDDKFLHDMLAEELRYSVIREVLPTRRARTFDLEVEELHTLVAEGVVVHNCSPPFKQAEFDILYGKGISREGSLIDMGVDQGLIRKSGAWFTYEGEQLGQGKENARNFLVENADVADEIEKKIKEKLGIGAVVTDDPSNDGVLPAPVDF

Cytochrome P450 2D6, sequence (P10635 whole entry): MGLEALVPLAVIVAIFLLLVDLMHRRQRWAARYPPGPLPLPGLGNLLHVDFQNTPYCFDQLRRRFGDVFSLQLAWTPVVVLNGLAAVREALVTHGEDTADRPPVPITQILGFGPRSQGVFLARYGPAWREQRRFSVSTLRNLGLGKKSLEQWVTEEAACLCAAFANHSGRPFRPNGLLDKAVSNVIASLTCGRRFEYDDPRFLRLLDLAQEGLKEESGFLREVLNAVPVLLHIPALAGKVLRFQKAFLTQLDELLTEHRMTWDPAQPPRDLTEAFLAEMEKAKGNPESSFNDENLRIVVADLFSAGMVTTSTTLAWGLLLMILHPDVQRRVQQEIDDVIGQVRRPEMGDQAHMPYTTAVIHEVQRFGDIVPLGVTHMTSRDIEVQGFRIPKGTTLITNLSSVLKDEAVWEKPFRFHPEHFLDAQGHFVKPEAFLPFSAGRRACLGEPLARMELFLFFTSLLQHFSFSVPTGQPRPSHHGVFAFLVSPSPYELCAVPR

SMILES: CCNc1ncc2nc(-c3cn(C)c4ccccc34)c(=O)n(Cc3cccc(OC)c3)c2n1
- AC50 (Cytochrome P450 1A2): 12.6 µM (inconclusive)

SMILES: CCCc1cc(=O)oc2cc(C)cc(OCC(=O)NCCCn3ccnc3)c12
- EC50 [1]: > 195 µM (not active)

SMILES: COc1ccccc1N1CCN(C[C@@H](C(=O)NC(C)(C)C)c2ccccc2)CC1
- AC50 (Cytochrome P450 2D6): 20 µM (inconclusive)
- AC50 (Cytochrome P450 1A2): 0.631 µM (inconclusive)

SMILES: CN1CCc2cc(Cl)c(O)cc2[C@H](c2ccccc2)C1
- AC50 (Cytochrome P450 1A2): 31.6 µM (inconclusive)

SMILES: O=C(OCc1cccc([N+](=O)[O-])c1)c1ccc2ccccc2n1
- IC50 (cells): 5.04 µM (active)

SMILES: N#CC1=C(S)N(c2ccc(F)cc2)C(c2ccco2)NC1=O (stereo not drawn)
- IC50 [2]: 84.4 µM (active)

SMILES: COc1ccc(OC)c(CN2CCN(Cc3ccc(OC)c(OC)c3OC)CC2)c1
- IC50 [2]: 77.7 µM (active)

SMILES: O=S(=O)(N[C@H]1C[C@@H](NS(=O)(=O)OCC(Cl)(Cl)Cl)C2CCCCC21)OCC(Cl)(Cl)Cl (stereo partly drawn)
- EC50 [3]: 2.45 µM (active)
- EC50 (Streptokinase A): 1.7 µM (active)
- EC50 (Streptococcus): 5.38 µM (active)
- AC50 [4]: 3.31 µM (active)
- EC50 (Protein RecA): 50.9 µM (active)

SMILES: CCOC(=O)C(=O)NC12CC3CC(CC(C3)C1)C2
- IC50 (cells): 44.5 µM (active)

SMILES: COc1cc(/C=N/NC(=O)CNC(=O)c2cccs2)ccc1O
- IC50 [2]: 42.2 µM (active)

SMILES: CCN(CC)c1ccc(NC(=O)C2CCCC2)cc1
- IC50 [2]: 63.5 µM (active)

SMILES: CCOC(=O)c1cc(-c2csc(COc3ccccc3Cl)n2)on1
- IC50 (cells): 0.4 µM (active)

SMILES: Oc1cc(C(F)(F)F)nc2c(C(F)(F)F)cccc12
- EC50 [3]: 2.62 µM (active)
- EC50 (Streptococcus): 8.27 µM (active)
- IC50 (cells): 50 µM (active)

SMILES: CCCCCCCC/C=C\CCCCCCCC(=O)NCc1ccc(O)c(OC)c1 [OLVANIL]
- AC50 (Cytochrome P450 1A2): 20 µM (inconclusive)

SMILES: Cc1ccc(C(=O)N/C(=C/c2ccco2)C(=O)Nc2cccc(C(=O)O)c2)cc1
- EC50 [1]: > 195 µM (not active)

SMILES: CCOC(=O)c1cc(NCc2cccs2)ccc1N1CCOCC1
- IC50 [2]: 93 µM (active)

SMILES: Cc1ccccc1C(=O)Nc1nnc(-c2ccco2)o1
- IC50 (cells): 5.71 µM (active)

SMILES: CCN1CCN(CC(O)COC(c2ccccc2)c2ccccc2C)CC1 (stereo not drawn)
- IC50 [2]: 64.1 µM (active)

SMILES: CN/C(=N\c1ccc(C2=NNC(=O)C[C@@H]2C)cc1)NC#N
- AC50 (Cytochrome P450 1A2): 39.8 µM (inconclusive)

SMILES: COc1ccccc1NC1=C(Cl)C(=O)N(C2CCCCC2)C1=O
- EC50 [1]: > 195 µM (not active)

SMILES: CCOc1cc(/C=N/NC(=O)c2ccc(NC(=O)C3CC3)cc2)ccc1O
- IC50 [2]: 72.4 µM (active)

SMILES: COc1ccc(Oc2ncc3ncc(=O)n(CCc4ccccc4)c3n2)cc1
- AC50 (Cytochrome P450 1A2): 0.631 µM (inconclusive)

SMILES: O=[N+]([O-])c1ccc(SCCc2ccncc2)cc1
- EC50 [1]: > 195 µM (not active)

SMILES: CCS(=O)(=O)NC(C)C(c1cccs1)N1CCN(c2ccc(OC)cc2)CC1 (stereo not drawn)
- IC50 [2]: 91.3 µM (active)

SMILES: COc1ccc(CN2CCNC(=O)C2CC(=O)NC2CC(C)(C)CC(C)(C)C2)cc1OC (stereo not drawn)
- EC50 [1]: > 195 µM (not active)

SMILES: O=C(NC(=S)NCCC1=CCCCC1)c1cncc(Br)c1
- EC50 [1]: > 195 µM (not active)

SMILES: O=C(NCc1cccs1)c1ccccc1[N+](=O)[O-]
- EC50 [1]: > 195 µM (not active)

SMILES: O=[N+]([O-])c1ccc(CN2CCN(c3ccccc3Cl)CC2)o1
- IC50 (cells): 0.84 µM (active)

SMILES: CC(C)Oc1ccc(/C=C(/NC(=O)c2ccccc2)C(=O)NCCC(=O)O)cc1
- EC50 [1]: > 195 µM (not active)

SMILES: C/C(=N/NC(=O)c1ccncc1)C1=C(O)CC(C)(C)CC1=O
- IC50 (cells): 5.71 µM (active)

SMILES: CC(=O)Nc1ccc(N=Nc2ccc(O)cc2)cc1
- IC50 [2]: 27.1 µM (active)
